These results are taken from patent US5202243A, “Method of hydroxylating 3-[2-(benzoxazol-2-yl)ethyl]-5-ethyl-6-methyl-2-(1H)-pyridinone by incubation with liver slices” (Merck & Co., Inc., priority 1992, dated 1993).

The structures appear in SMILES notation.

Series [1] concerns the target T1, recombinant HIV reverse transcriptase (HIV RTR) (Human immunodeficiency virus type 1 group M subtype B, UniProt P04585).
T1 construct: recombinant HIV reverse transcriptase (HIV RTR)
The series is described as follows: Reverse transcriptase assay (incorporation of tritiated dGMP into acid-precipitable cDNA). Conditions: [dGTP] and poly r(C).oligo d(G)12-18 at approx. Km; 37° C., 45 minutes; read-out: calculated IC50. Format: biochemical. On the procedure:
The assay measures the incorporation of tritiated deoxyguanosine monophosphate by recombinant HIV reverse transcriptase (HIV RTR) (or other RT) into acid-precipitable cDNA at the Km values of dGTP and poly r(C).oligo d(G)12-18.
Thirty uL of a reaction mixture containing equal volumes of: 500 mM Tris.HCl (pH 8.2), 300 mM MgCl2, 1200 mM KCl, 10 mM DTT, 400 μg/mL poly r(c).oligo d(G) [prepared by dissolving 1.5 mg (25 U) poly r(C).oligo d(G) in 1.5 ml sterile distilled H2 O and diluting to 400 μg/ml], 0.1 μCi/μl [^3 H] dGTP, 160 μM dGTP, were added to 10 μl sterile distilled H2 O, and 2.5 μl of potential inhibitor. An aliquot of 10 μL of 5 nM purified HIV RTR was added to initiate the reaction. The mixture was incubated at 37° C. for 45 minutes.
After incubation is complete, the tubes were cooled in ice for 5 minutes. Ice-cold 13% TCA containing 10 mM NaPPi (200 μl) are added and the mixture incubated on ice for 30 minutes. The precipitated cDNA is removed by filtration using presoaked glass filters [TCA, NaPPi ]. The precipitate is then washed with 1N HCl, 10 mM NaPPi.
The filter discs are then counted in a scintillation counter.
Under these conditions [dGTP] and poly r(C).oligo d(G)12-18 each are approximately equal to the appropriate Km value. Approximately 5-6,000 cpm of [^3 H] GMP are incorporated into acid-precipitable material. The RT reaction is concentration- and time-dependent.

Series [2] can be described thus: Incubation with rat liver slices (metabolism). Format: in vitro ADME. Conditions: four hours. The source says: Ethyl acetate extraction gave a recovery of ~70% of the tritiated material, while ~25% (~9 HPLC peaks) remained in the aqueous residue.

A word on the IC50: it is the point on the concentration scale where inhibition reaches its midpoint.

Turning to `CCc1cc(CCc2nc3ccccc3o2)c(=O)[nH]c1CO` [compound (I), 3-[2-(benzoxazol-2-yl)ethyl]-5-ethyl-6-hydroxymethyl-2 (1H)-pyridinone], in series [1], the IC50 was around 44 nM. Further, the “radioactive HPLC peak, % of the total metabolites” value in series [2] (ethyl acetate extract of the rat liver slice incubation of the parent compound) amounted to 6%.
Molecule `CCc1cc(CCc2nc3ccccc3o2)c(O)nc1C` [compound (II), 3-[2-(Benzoxazol-2-yl)ethyl]-5-ethyl-6-methyl-2-(1H)-pyridinone] had a metabolised at 4 h in series [2] (tritiated compound 14.18 μmol, rat liver slices 6.1 g, Williams Medium E, pH 7.4, 37° C.) of around 32%.
